{"source": "patent US8703716B2", "about": "“Maternal sialic acid supplementation” (DSM IP Assets B.V., priority 2010, dated 2014)", "key": {"[1]": {"system": "myelin basic protein (MBP) expression in the developing whole brain", "assay": "MBP expression by western blot of whole brain lysates of offspring after maternal NANA supplementation", "assay_type": "in vivo, Long-Evans rats", "source_text": "(§1) To determine the effects of supplementing maternal diets with sialic acid (n-acetylneuraminic acid; NANA) on the brain development of the offspring, forty (40) pregnant Long-Evans rats were placed on four (4) diets (10 dams per diet) that differed in their administration of sialic acid (Nacalai, San Diego, Calif.). All animals were started on the diets on the 4th day after being mated (gestational day 4).\nDams placed on the gestational diet (“Gest”) received NANA (200 milligrams (mg) per kilogram (kg) body weight per day (d)) only during gestation. These animals were then placed on a base diet after the offspring were born. Conversely, dams on the lactational diet (“fact”) were placed on the base diet during gestation but received NANA (200 mg/kg/d) through the diet during lactation. Dams receiving NANA (200 mg/kg/d) through the diet throughout gestation and lactation were known as the “G+L” group.\nAfter birth, the pups born to each diet group were crossfostered within their respective group to control for any differences in maternal care. The litters were then culled to 10 pups per dam to prevent nutritional differences caused by lack of access to the dam. The study was also designed to allow for the use of 5 pups at each endpoint (N=5) while keeping the litter size equal across all groups. Pups were taken at postnatal day 1 (p1) to determine potential differences between gestational supplementation and lactational supplementation of the maternal diet. […] Pups were also taken at p8 because it served as a midway timepoint and because the primary biomarker used cannot be detected until this day in rat development.\nTo determine the effects of maternal NANA supplementation on the brain development of offspring, MBP expression was measured by western blot analysis of whole brain lysates that were harvested from pups at postnatal days 0, 8, and 16 described in FIG. 2. […]\nThe graphs represent the average intensity of MBP expression normalized by the corresponding actin signal in relative fluorescence units (Normalized R.F.U.)."}, "hippocampal cultures": {"system": "hippocampal cultures", "assay": "Ex vivo neurite extension (Map2a staining) in hippocampal cultures from offspring of NANA-supplemented dams", "set-up": "species or system Long-Evans rats", "conditions": "6 days culture", "source_text": "as §1\n[…] These animals were then placed on a base diet after the offspring were born. Conversely, dams on the lactational diet (“fact”) were placed on the base diet during gestation but received NANA (200 mg/kg/d) through the diet during lactation. […]\nTo determine the effects of maternal NANA supplementation on the brain development of offspring, neurite extension was measured in hippocampal cultures made from p0 pups described in FIG. 2. […] The number of cells in each culture was assessed by staining with 4′,6-diamidino-2-phenylindole (DAPI).\nThe percent area of Map2a staining was determined by computerized counting of all Map2a positive pixels in each image (5 random fields for each of 9-10 cultures per group; 1 culture per animal). […] A two-tailed, unpaired students t-test was used to compare the two groups, and the test detected a significant difference between the supplemented group and the control group (**, p<0.01). […]"}, "[2]": {"system": "thickness of MBP expression in white matter of p16 pup brain", "assay": "Thickness of MBP expression in offspring brain slices by MBP immunohistochemistry and confocal laser microscopy", "assay_type": "in vivo, Long-Evans rats", "conditions": "p16 pups", "source_text": "To determine the effects of supplementing maternal diets with sialic acid (n-acetylneuraminic acid; NANA) on the brain development of the offspring, forty (40) pregnant Long-Evans rats were placed on four (4) diets (10 dams per diet) that differed in their administration of sialic acid (Nacalai, San Diego, Calif.). All animals were started on the diets on the 4th day after being mated (gestational day 4). […]\n(§2) FIGS. 3A and 3B show the maternal NANA supplementation protocol for experiments testing additional doses of NANA administered during gestation (FIG. 3A) and lactation (FIG. 3B).\nTo determine the effects of maternal NANA supplementation on the brain development of offspring, assessment of the CC and LOT was performed by taking thin slices of the p16 pup brain described in FIG. 2, staining the slices with MBP immunohistochemistry, and measuring the areas of interest with confocal laser microscopy. […] The locations of the LOT and regions associated with the anterior commissure (AC) are also illustrated in FIG. 7A. […]\nTo further assess the effects of maternal NANA supplementation during lactation on the brain development of offspring, assessment of the corpus callosum (CC) and lateral olfactory tract (LOT) was performed by taking thin slices of the p16 pup brain (LacDR p16) described in FIG. 3B, staining the slices with MBP immunohistochemistry, and quantitating the areas of interest with confocal laser microscopy as described in Example 2. Maternal supplementation with NANA at doses of 25 mg/kg/d, 50 mg/kg/d, 100 mg/kg/d and 200 mg/kg/d was tested.\nTo further assess the effects of maternal NANA supplementation during lactation on the brain development of offspring, assessment of the motor pyramids and medial lemniscus was performed by taking thin slices of the p16 pup brain (LacDR p16) described in FIG. 3B, staining the slices with MBP immunohistochemistry, and quantitating the areas of interest with confocal laser microscopy as described in Example 2. Maternal supplementation with NANA at doses of 25 mg/kg/d, 50 mg/kg/d, 100 mg/kg/d and 200 mg/kg/d was tested."}, "[3]": {"system": "MBP expression in the cerebellum", "assay": "MBP expression by western blot of offspring cerebellum after maternal NANA supplementation during lactation", "assay_type": "in vivo, rat", "protocol": "as §2\nTo further assess the effects of maternal NANA supplementation during lactation on the brain development of offspring, MBP expression was measured by western blot analysis of cerebellum that was harvested from pups at postnatal days 0, 8, and 16 described in FIG. 3B. As described in Example 2, the blots were probed with an antibody for MBP as described in Example 2 that recognizes the 18 kilodalton form (18 kD MBP) and 21 kilodalton form (21 kD MBP) and an antibody for β-actin as a protein loading control. Quantitation of MBP expression performed with densitometry of the bands in each lane, and each lane represented an individual animal as described in Example 2.\nThe graphs in FIGS. 12A and 12B represent the average intensity of MBP expression normalized by the corresponding actin signal in relative fluorescence units (Normalized R.F.U.)."}, "[4]": {"assay": "NANA and Neu5Gc concentrations in cerebrospinal fluid after a single oral NANA dose", "assay_type": "in vivo, rat", "conditions": "single oral dose NANA 200 mg/kg", "protocol": "To assess whether NANA is bioavailable to the brain in its native form or whether NANA is processed on its way across the blood-brain barrier, the levels of NANA and one of its potential metabolites were measured in rat cerebrospinal fluid (CSF). The animals' diets were first cleared of NANA by placing them on NANA-free diets for one week. The animals were then given a single, oral dose of NANA (200 mg/kg), and the CSF of each animal was sampled at 0, 0.25, 1, 2, 4, and 6 hours after dosing. The concentrations of NANA and Neu5Gc in the CSF were then assessed by high-pressure liquid chromatography coupled with fluorescence detection methods and quantitation standards."}, "[5]": {"conditions": "mice, dams and pups lacking the gene to produce Neu5Gc; cited from earlier work"}, "[6]": {"conditions": "maternal NANA 25-200 mg/kg/d during gestation"}, "[7]": {"conditions": "maternal NANA 25-200 mg/kg/d during lactation, p<0.01 / p<0.001"}, "[8]": {"conditions": "maternal NANA during lactation, at certain doses tested, ANOVA p<0.001"}}, "data": [{"smiles": "CC(=O)N[C@H]1[C@H]([C@H](O)[C@H](O)CO)OC(O)(C(=O)O)C[C@@H]1O", "note": "(some centres unmarked) [NANA, N-acetylneuraminic acid]", "values": [{"measurement": "expression of both MBP isoforms, lactational diet compared to NANA-deficient diet", "setting": "[1]; NANA 200 mg/kg/d during lactation only, overall analysis and postnatal day 8, Tukey p<0.05", "value": "significantly increased"}, {"measurement": "expression of 21 kDa MBP normalized to β-actin", "setting": "[1]; whole brain of pups, maternal NANA 200 mg/kg/d in diet, one-way ANOVA p=0.012", "value": "significant increase"}, {"measurement": "expression of 18 kDa MBP normalized to β-actin", "setting": "[1]; whole brain of pups, maternal NANA 200 mg/kg/d in diet, one-way ANOVA p=0.037", "value": "significant increase"}, {"measurement": "percent area of Map2a staining per neuron (neurite extension)", "setting": "hippocampal cultures; dams fed NANA 25, 50, 100, 200 mg/kg/d during gestation, p<0.01 / p<0.001", "value": "significantly greater"}, {"measurement": "percent area of Map2a staining per neuron (neurite extension)", "setting": "hippocampal cultures; p0 pups, dams fed NANA 200 mg/kg/d during gestation, p<0.01 vs control", "value": "significantly greater"}, {"measurement": "thickness of MBP expression in the motor pyramids", "setting": "[2]; maternal NANA 50 mg/kg/d during lactation, p=0.022", "value": "significant increase"}, {"measurement": "maximal thickness of MBP expression in the lateral olfactory tract (LOT)", "setting": "[2]; maternal NANA 200 mg/kg/d during gestation, lactation or gestation plus lactation", "value": "significant increases"}, {"measurement": "thickness of MBP expression in the corpus callosum (CC)", "setting": "[2]; maternal NANA 200 mg/kg/d during gestation, lactation or gestation plus lactation, ANOVA p<0.001", "value": "significant increases"}, {"measurement": "thickness of MBP expression in the middle CC", "setting": "[2]; [6]", "value": "did not appear to change"}, {"measurement": "thickness of MBP expression in the midline CC decussation", "setting": "[2]; [6]", "value": "did not appear to change"}, {"measurement": "thickness of MBP expression in the frontal CC", "setting": "[2]; maternal NANA 25-200 mg/kg/d during gestation, p<0.001", "value": "significant increases"}, {"measurement": "thickness of MBP expression in the LOT", "setting": "[2]; maternal NANA 25-200 mg/kg/d during gestation, p<0.05 / p<0.001", "value": "significant increases"}, {"measurement": "thickness of MBP expression in the medial lemniscus", "setting": "[2]; maternal NANA 25-200 mg/kg/d during gestation, p<0.05 / p<0.01", "value": "significant increases"}, {"measurement": "thickness of MBP expression in the motor pyramids", "setting": "[2]; maternal NANA 25-200 mg/kg/d during gestation, p<0.05 to p<0.001", "value": "significant increases"}, {"measurement": "thickness of MBP expression in the medial lemniscus", "setting": "[2]; maternal NANA 25-200 mg/kg/d during lactation", "value": "no significant changes"}, {"measurement": "thickness of MBP expression in the LOT", "setting": "[2]; maternal NANA 25-200 mg/kg/d during lactation, p<0.001", "value": "significant increases"}, {"measurement": "thickness of MBP expression in the midline CC", "setting": "[2]; [7]", "value": "significant increases"}, {"measurement": "thickness of MBP expression in the rostral CC", "setting": "[2]; [7]", "value": "significant increases"}, {"measurement": "thickness of MBP expression in the midline CC decussation", "setting": "[2]; maternal NANA 25-200 mg/kg/d during lactation, p<0.05 / p<0.001", "value": "significant increases"}, {"measurement": "thickness of MBP expression in the motor pyramids", "setting": "[2]; maternal NANA during lactation, the other doses tested (25, 100, 200 mg/kg/d)", "value": "no significant changes"}, {"measurement": "total MBP (combined 18 kDa and 21 kDa) in cerebellum", "setting": "[3]; maternal NANA 25 mg/kg/d during lactation, p<0.01", "value": "significant increase"}, {"measurement": "total MBP (combined 18 kDa and 21 kDa) in cerebellum", "setting": "[3]; maternal NANA 100 mg/kg/d during lactation, p<0.05", "value": "significant increase"}, {"measurement": "total MBP (combined 18 kDa and 21 kDa) in cerebellum", "setting": "[3]; maternal NANA 200 mg/kg/d during lactation, p<0.01", "value": "significant increase"}, {"measurement": "expression of 18 kDa MBP normalized to actin in cerebellum", "setting": "[3]; [8]", "value": "significant increase"}, {"measurement": "expression of 21 kDa MBP normalized to actin in cerebellum", "setting": "[3]; [8]", "value": "significant increase"}, {"measurement": "time at which CSF NANA returned to baseline values", "setting": "[4]; rat CSF", "value": "≤ 1", "unit": "h"}, {"measurement": "time of peak of native NANA in CSF after dosing", "setting": "[4]; rat CSF", "value": 15, "unit": "min"}, {"measurement": "blood-brain barrier crossing of native NANA", "setting": "[4]; rat, from CSF levels", "value": "crossed the blood-brain barrier"}]}, {"smiles": "O=C(CO)N[C@H]1[C@H]([C@H](O)[C@H](O)CO)OC(O)(C(=O)O)C[C@@H]1O", "note": "(some centres unmarked) [Neu5Gc, N-glycolylneuraminic acid]", "values": [{"measurement": "transfer of Neu5Gc from fed dams to pups", "setting": "[5]", "value": "does not transfer"}]}]}
